Laboratory results: article PMC9926234, “Iterative computational design and crystallographic screening identifies potent inhibitors targeting the Nsp3 macrodomain of SARS-CoV-2” (Proceedings of the National Academy of Sciences of the …, 2023)

molecular target: SARS-CoV-2 NSP3 Mac1 (Severe acute respiratory syndrome coronavirus 2, UniProt P0DTD1); assay type: binding; design: contains a conserved macrodomain enzyme (Mac1); details: DSF dose responsiveness, 1 µM nsp3 mac1; adj p given
Method: DSF and associated compound handling was performed as described ([12]), with 5 µM dye “Fluorescent Yellow” (Jacquard iDye Cat #JID1405) used in place of SYPRO Orange. Compounds were tested in triplicate, at seven concentrations in two-fold serial dilutions, at a top concentration of either 1,000 or 100 μM. To minimize experimental noise arising from plate location-based effects on Tma, all concentrations and replicates for each compound were tested within a single region of the microtiter plates, including a DMSO-only control from which ΔTmas were calculated for that compound. […] For each compound, to determine statistical significance of the dose responsive thermal shift, the Spearman’s coefficient was calculated between compound concentration and ΔTma.

SMILES	Spearman est (compound concentration vs apparent Tm)
O=C(Nc1nc2ccccc2c(=O)[nH]1)c1cccnc1 [Z1082933628]	0.37
O=C(NC(C(=O)O)c1c[nH]c2ccccc12)c1ncnc2[nH]ccc12 (centres unmarked) [Z4661819162]	−0.51
CCOC(=O)C(NC(=O)c1c[nH]c2ncncc12)c1c[nH]c2ccccc12 (centres unmarked) [Z4661819167]	0.82
O=C1CSc2cc(C(=O)OC3c4ccccc4CC3F)ccc2N1 (centres unmarked) [Z4718398554]	−0.18
Cc1nc(Cn2cnc3c(N)nc(N)nc32)cs1 [Z4718398569]	0.06
Nc1nc(N)c2ncn(Cc3csc(Cl)n3)c2n1 [Z4718398572]	0.89
Nc1nc(N)c2ncn(Cc3csc(C4CC4)n3)c2n1 [Z4718398585]	0.75
O=C(Nc1cccnc1)Nc1nc2ccccc2c(=O)[nH]1 [Z4718398593]	−0.56
O=C(NCc1nc2ccccc2c(=O)[nH]1)Nc1cccnc1 [Z4718398598]	−0.41
O=C(Nc1cccnc1)Nc1ccc2ccccc2n1 [Z4718398614]	−0.43
COc1ccc(Cl)cc1Cn1cnc2c(N)ncnc21 [ZINC000110510953]	0.55
O=C1CCCN1CCSc1ncnc2[nH]cnc12 [ZINC000118179920]	0.78
CC1CN(C(=O)CCc2nc(-c3ccncc3)no2)C1c1ccccc1 (centres unmarked) [ZINC000173980856]	0.61
O=C(c1cccc(O)c1)N1CCC(Nc2ccccc2)C1 (centres unmarked) [ZINC000182324508]	0.13
Cc1cc(C(=O)C(C#N)c2nnc3n2CCCCC3)cc(O)n1 (centres unmarked) [ZINC000183202483]	−0.33
Cc1ccc(-c2noc(C3CC(=O)N(c4cn[nH]c4)C3)n2)cc1 (centres unmarked) [ZINC000189176019]	−0.48
Cc1oc(=O)oc1CSc1ncnc2[nH]cnc12 [ZINC000222377450]	0.54
c1ccc(-c2n[nH]c(Cc3noc([C@@H]4CCCO4)n3)n2)cc1 [ZINC000273900063]	−0.02
OCc1cn(C2CCCN(c3ncnc4[nH]ccc34)C2)nn1 (centres unmarked) [ZINC000292637864]	0.65
O=C(c1cccc(O)c1)N1CC=C(c2ccccc2)C1 [ZINC000336444141]	0.55

SMILES	Spearman est (compound concentration vs apparent Tm)
Fc1ccc(F)c(Sc2ncnc3[nH]ccc23)c1 [ZINC000339235289]	0.01
Cc1nc(Cc2noc(Cc3ccc4[nH]ncc4c3)n2)no1 [ZINC000345855262]	−0.06
COc1ccc(-c2nnc(NC(=O)Cc3ncccc3F)s2)cc1 [ZINC000350686468]	0.17
Cc1oc(-c2cccs2)nc1Cc1nc(-c2cncnc2N)no1 [ZINC000350813789]	0.74
CC(C)c1noc(CCc2nc(-c3ccnc4[nH]ccc34)no2)n1 [ZINC000351161347]	−0.81
c1ccc2c(c1)N(c1ncnc3[nH]ccc13)CC21CC1 [ZINC000352369310]	−0.82
Cc1nc(S(=O)(=O)NCc2ccc(-c3ccncc3)cc2)cn1C [ZINC000352487041]	0.73
c1ccc2c(-c3noc(CCCc4nc(C5CC5)no4)n3)n[nH]c2c1 [ZINC000356759652]	0.72
Cc1ccc(-c2noc(CCCSC3CCCNC3=O)n2)cc1F (centres unmarked) [ZINC000359061121]	0.71
Cc1ccc(NS(=O)(=O)c2ccc(C(F)(F)F)cn2)c(O)n1 [ZINC000359659274]	0.61
Cc1n[nH]c2ncc(CN3CC(C)Oc4c(F)cccc43)cc12 (centres unmarked) [ZINC000361138637]	0.07
O=C(c1c(F)ccc(O)c1F)N1CCC(Oc2cccc(F)c2)C1 (centres unmarked) [ZINC000368135547]	−0.88
Cc1ccc(C(=O)N2CC[C@H](Oc3ccccc3)C2)cc1O [ZINC000371562024]	−0.6
COC(=O)CC1CN(c2ncnc3[nH]ccc23)c2ccccc21 (centres unmarked) [ZINC000371804911]	0.77
CC(C(=O)N1CCCC1c1nc(C(N)=O)no1)c1cccc(F)c1 (centres unmarked) [ZINC000373034135]	0.29
CN(c1cc(NC2CC2)ncn1)C1CCCN(c2cccnn2)C1 (centres unmarked) [ZINC000413143167]	−0.41
CN(Cc1cccc(O)c1)C(=O)Cc1ccncc1 [ZINC000542791186]	0.23
NC(=O)c1ccc(Cc2noc(CCc3ccoc3)n2)cc1 [ZINC000546336511]	−0.79
Nc1ncnc2c1ncn2CCCc1ccsc1 [ZINC000570815972]	0.79
CC1c2ccc(F)cc2CCN1C(=O)c1cccc(O)c1 (centres unmarked) [ZINC000679635167]	−0.95

same assay, conditions: maximal thermal upshift

SMILES	DSF max dTma
Cc1cc(C(=O)C(C#N)c2nnc3n2CCCCC3)cc(O)n1 (centres unmarked) [ZINC000183202483]	0 ˚C
c1ccc(-c2n[nH]c(Cc3noc([C@@H]4CCCO4)n3)n2)cc1 [ZINC000273900063]	0.03 ˚C
Cc1ccc(NS(=O)(=O)c2ccc(C(F)(F)F)cn2)c(O)n1 [ZINC000359659274]	0.65 ˚C

same assay, conditions: maximal thermal upshift vs DMSO control

SMILES	DSF max dTma
COc1ccc(-c2nnc(NC(=O)Cc3ncccc3F)s2)cc1 [Z6468]	0.58 °C
Cc1nc(S(=O)(=O)NCc2ccc(-c3ccncc3)cc2)cn1C [Z7041]	0.35 °C
Clc1cc2c(N3CCCC(c4nnc[nH]4)C3)ncnc2[nH]1 (centres unmarked) [Z7156]	0.86 °C
Cc1cc(C)nc(CSc2nnc3c(=O)[nH]c4ccccc4n23)c1 [Z7570]	0.36 °C
CN(Cc1nnc2c(=O)[nH]ccn12)c1nccc(C(F)(F)F)n1 [Z7665]	0.55 °C
CN(Cc1nnc2c(=O)[nH]ccn12)c1cc(Cl)nc(C2CC2)n1 [Z7766]	0.14 °C
CC1CCc2n[nH]cc2C1C(=O)N(C)OCc1ccccc1 (centres unmarked) [Z8074]	0.54 °C
O=c1[nH]nc(C2CCCN(c3ncnc4[nH]c(Cl)cc34)C2)o1 (centres unmarked) [Z8387]	1.01 °C
O=C1CSc2cc(C(=O)OC3c4ccccc4CC3F)ccc2N1 (centres unmarked) [Z8554]	0.13 °C
O=C(Nc1cccnc1)Nc1nc2ccccc2c(=O)[nH]1 [Z8593]	0 °C
O=C(NCc1nc2ccccc2c(=O)[nH]1)Nc1cccnc1 [Z8598]	0.22 °C
O=C(Nc1cccnc1)Nc1ccc2ccccc2n1 [Z8614]	0.06 °C
Cc1n[nH]c2ncc(CN3CC(C)Oc4c(F)cccc43)cc12 (centres unmarked) [Z8637]	0.16 °C
CS(=O)(=O)C1CCCCN(c2ncnc3[nH]c4ccccc4c23)C1 (centres unmarked) [Z8648]	0.24 °C
Clc1cc2c(N3CCCC(c4cccnc4)C3)ncnc2[nH]1 (centres unmarked) [Z8680]	0.25 °C
NC(=O)c1ccc(CCSc2cccc(F)c2)cc1 [Z8885]	0.09 °C
c1ccc2c(c1)N(c1ncnc3[nH]ccc13)CC21CC1 [Z9310]	0 °C
CS(=O)(=O)C1CCCN(c2ncnc3[nH]c(Cl)cc23)C1 (centres unmarked) [Z9550]	0.64 °C
c1ccc2c(-c3noc(CCCc4nc(C5CC5)no4)n3)n[nH]c2c1 [Z9652]	0.72 °C
